Laboratory results published in paper PMC10381533, “Inhibitory Effects of the Fungal Pigment Rubiginosin C on Hyphal and Biofilm Formation in Candida albicans and Candida auris” (Journal of Fungi, 2023).
Where two headings read alike, the source gives them in different places. *1 amine or outer side, *2 acyl side, *3 side chain or, on linkers, in order; H or OH if unused. Where a SMILES comes first, the peptide text is derived from it. [ ]: non-standard residue; d: D form. The star is where a group is joined. X1 = O=C(C[C@H](N[*:1])c1ccc(O)cc1)[*:2]; dVal(3-OH) = CC(C)(O)[C@@H](N)C(=O)O; ΔIle(E) = CC/C(C)=C(/N)C(=O)O; Isovaleryl = CC(C)CC(=O)*; Agmatine = N=C(N)NCCCCN*; NMeA = CN[C@@H](C)C(=O)O; ΔVal = CC(C)=C(N)C(=O)O

How the values were obtained:
[1] = test system: human endocervical adenocarcinoma KB-3-1 [ACC 158] cells; test: MTT cytotoxicity assay, KB-3-1; type: cell-based; details: KB 3-1
Experimental: (§1) Cytotoxic effects were evaluated on human endocervical adenocarcinoma KB-3-1 [ACC 158] cells and mouse fibroblasts L929 [ACC 2] upon treatment with Rub C, W, and Rut A and B within the concentration range of 37 μg/mL–0.63 ng/mL. The half-maximum inhibitory concentrations (IC50) were determined by standard MTT assays as reported previously (see the Supplementary Material for detailed information). The IC50 values of Rub A and Z have currently been reported. […]
(§2) KB-3-1 (ACC 158) cervix carcinoma as well as L929 (ACC 2) mouse fibroblasts were cultured under standard cell culture conditions (37 °C, 5% CO2, 95% humidified atmosphere). The cells were maintained in high glucose DMEM containing 10% fetal bovine serum and 100 U/mL penicillin and streptomycin (Gibco, Thermo Fisher Scientific, Waltham, USA). Cell lines were serially passaged after trypsinization, using 0.05% trypsin / 0.02% EDTA solution. The cultures were routinely monitored for potential contamination, and only mycoplasma free cultures were used. The test compounds were investigated for their anti-proliferative effect on cell lines, using the 3-(4,5-dimethylthiazol-2-yl)-2,5-diphenyltetrazolium bromide (MTT) based cell viability assay. Cells were seeded in 96 well microtiter plates (Sarstedt, Germany) with a cell density of 0.05 * 10^6 cells per mL and 100 μL per well and were incubated for 24 h. […]
(§3) Absorbances at 570 nm and 630 nm were measured with a plate reader (Tecan, Männedorf, canton of Zürich, Switzerland). Background absorbance (630 nm) was subtracted from the formazan signal (570 nm). The resulting absorbance is directly proportional to the amount of viable cells. The control was normalized to 100% viable cells, and the viability of cells treated with the test compounds was calculated accordingly. IC50 values were calculated based on a sigmoidal fit model using GraphPad Prism. Means and SD were calculated from at least four independent experiments. […]

[2] = test system: mouse fibroblasts L929 [ACC 2]; test: MTT cytotoxicity assay, L929; type: cell-based
Experimental: as §1, §2, §3

[3] = test system: human endocervical adenocarcinoma KB-3-1 [ACC 158] cells; details: second value of the cell; cited from earlier work
[4] = test system: mouse fibroblasts L929 [ACC 2]; details: second value of the cell; cited from earlier work
[5] = test system: Staphylococcus aureus (DSM 1104) biofilm; test: Crystal violet biofilm inhibition assay, S. aureus; type: cell-based
Experimental: Selected azaphilones Rub C and W, Rut A and B were tested against the formation of biofilms in Staphylococcus aureus (DSM 1104). S. aureus DSM 1104 from a −20 °C stock was precultured in 25 mL CASO (casein-peptone soymeal-peptone) medium in a 250 mL flask at 37 °C with 100 rpm for 20 h. The OD600 of the culture solution was adjusted to 0.001 McFarland standard and incubated in 96-well microtiter plates (TPP tissue culture ref.no 92196, Switzerland) for 18 h at 37 °C with 150 μL of serially diluted test […]
(§4) compounds (250–2 μg/mL) in CASO with 4% glucose broth. The inhibition of biofilm formation was evaluated by staining with 150 μL of 0.1% crystal violet (CV; Thermo Fisher) following previously established protocols. In the next step, the supernatant of the 96-well plate was discarded and the wells were rinsed once with PBS buffer. The remaining biofilms were stained at room temperature for 15 min, rinsed three times with PBS buffer, and finally dissolved in 150 μL ethanol (95%). The absorbance of the resulting solution at 530 nm was quantified using a plate reader (Synergy 2, BioTek). Methanol (2.5%) and microporenic acid A (MAA) (250–2 μg/mL) were used as negative and positive controls. Standard deviations (SD) of two repeats with duplicates were 10% or less. […]
μg/mL) were used as negative control and positive control, respectively. The assay was conducted for […]
(§5) Table S2: Selected azaphilones were tested against the formation of biofilm of S. aureus, P. aeruginosa as well as C. auris and dispersal effect on preformed biofilm of S. aureus compared to solvent control (= 0%), respectively. SDs are shown as ±SD.
(§6) Compounds Strains Concentrations [µg/mL] […]

[6] = test system: preformed S. aureus biofilm; test: Dispersal effect on preformed S. aureus biofilm; type: cell-based, Staphylococcus aureus
Experimental: as §4, §5, §6

[7] = test system: Pseudomonas aeruginosa (PA 14) DSM 19882 biofilm; test: Crystal violet biofilm inhibition assay, P. aeruginosa; type: cell-based; details: assay conducted once
Experimental: Selected azaphilones Rub C and W, Rut A and B were tested against the formation of biofilms in Pseudomonas aeruginosa (PA 14) DSM 19882. Bacterial strain was precultured in 25 mL LB medium (Luria - Bertani Broth) with a 250 mL flask at 37 °C with shaking 100 rpm overnight. The turbidity of the baterial solution was measured and diluted to match the turbidity of a 0.1 McFarland standard in M63 medium, which is supplemented with magnesium sulfate, glucose and casamino acids as previously described. The compounds were added into 150 μL bacterial solution at the concentration (250–2 μg/mL) then the solution was added in U-bottom 96 well plate (Falcon ref.no 351177, Thermo Fisher Scientific). The plates were incubated at 37 °C at 150 rpm for 24 h and biofilms were established at the air liquid interface. The plates were rinsed once by using PBS buffer, the biofilms were stained by 150 μL 0.1% CV at room temperature for 15 min and then rinsed two times by using PBS buffer. The absorbance was quantified with the plate reader (Synergy 2, BioTek) at 550 nm using ethanol (95%). Methanol (2.5 %) and myxovalargin A (250 –2 μg/mL) were used as negative control and positive control, respectively. The assay was conducted for […]
as §5, §6

For `C/C(=C\c1csc(C)n1)[C@@H]1C[C@@H]2O[C@]2(C)CCC[C@H](C)[C@H](O)[C@@H](C)C(=O)C(C)(C)[C@@H](O)CC(=O)O1` [Epothilone B, reference compound], the IC50 [1] is listed as 0.053 nM, the IC50 [2] is listed as 0.17 nM and the IC50 [3] is listed as 0.028 nM. The IC50 [4] was 0.031 nM.
With `CC(C)=CCC/C(C)=C/CC/C(C)=C/CC/C(C)=C/CO[C@@H](C(=O)O)[C@H](CC(=O)O)C(=O)O` [MAA, microporenic acid A, reference compound] the “inhibition of S. aureus biofilm formation compared to solvent control (= 0%)” value ([5]; 2 µg/mL) was “/ ((/) no activity)”, the “inhibition of S. aureus biofilm formation compared to solvent control (= 0%)” value ([5]; 3.9 µg/mL) was 45 ±10% and the “inhibition of S. aureus biofilm formation compared to solvent control (= 0%)” value ([5]; 7.8 µg/mL) was 77 ±10%. For the same compound, the “inhibition of S. aureus biofilm formation compared to solvent control (= 0%)” value ([5]; 15.6 µg/mL) was 83 ±6%, the “inhibition of S. aureus biofilm formation compared to solvent control (= 0%)” value ([5]; 31.3 µg/mL) was 86 ±4% and the “inhibition of S. aureus biofilm formation compared to solvent control (= 0%)” value ([5]; 62.5 µg/mL) was 86 ±4%. For the same compound, the “inhibition of S. aureus biofilm formation compared to solvent control (= 0%)” value ([5]; 125 µg/mL) was 85 ±5%, the “inhibition of S. aureus biofilm formation compared to solvent control (= 0%)” value ([5]; 250 µg/mL) was 83 ±6% and the “dispersal effect on preformed biofilm of S. aureus compared to solvent control (= 0%)” value (“dispersal effect on preformed biofilm … (= 0%)” for short) ([6]; 15.6 µg/mL) was 33 ±10%. The “dispersal effect on preformed biofilm … (= 0%)” value ([6]; 31.3 µg/mL) was 54 ±6%, the “dispersal effect on preformed biofilm … (= 0%)” value ([6]; 62.5 µg/mL) was 60 ±9% and the “dispersal effect on preformed biofilm … (= 0%)” value ([6]; 125 µg/mL) was 65 ±7%. The “dispersal effect on preformed biofilm … (= 0%)” value ([6]; 250 µg/mL) was 65 ±4%.
With `CC/C(C)=C(/NC(=O)[C@H](NC(=O)[C@H](NC(=O)[C@@H](CCCN=C(N)N)NC(=O)C(NC(=O)[C@@H](NC(=O)C[C@H](NC(=O)[C@H](NC(=O)[C@H](NC(=O)[C@H](C)N(C)C(=O)[C@H](C)NC(=O)C(NC(=O)CC(C)C)=C(C)C)C(C)C)C(C)C)c1ccc(O)cc1)C(C)C)=C(C)C)C(C)C)C(C)C)C(=O)N[C@H](C)C(=O)N[C@@H](C(=O)NCCCCN=C(N)N)C(C)(C)O` [Myxovalargin A, myxovalargin A, reference compound] (Isovaleryl-[ΔVal]A[NMeA][dV][dV][X1]V[ΔVal][dR][dV][dV][ΔIle(E)][dA][dVal(3-OH)]-Agmatine) the “inhibition of P. aeruginosa biofilm formation compared to solvent control (= 0%)” value ([7]; 2 µg/mL) was “/ ((/) no activity)”, the “inhibition of P. aeruginosa biofilm formation compared to solvent control (= 0%)” value ([7]; 3.9 µg/mL) was “/ ((/) no activity)” and the “inhibition of P. aeruginosa biofilm formation compared to solvent control (= 0%)” value ([7]; 7.8 µg/mL) was “/ ((/) no activity)”. For the same compound, the “inhibition of P. aeruginosa biofilm formation compared to solvent control (= 0%)” value ([7]; 15.6 µg/mL) was “/ ((/) no activity)”, the “inhibition of P. aeruginosa biofilm formation compared to solvent control (= 0%)” value ([7]; 31.3 µg/mL) was 61% and the “inhibition of P. aeruginosa biofilm formation compared to solvent control (= 0%)” value ([7]; 62.5 µg/mL) was 59%. The “inhibition of P. aeruginosa biofilm formation compared to solvent control (= 0%)” value ([7]; 125 µg/mL) was 65% and the “inhibition of P. aeruginosa biofilm formation compared to solvent control (= 0%)” value ([7]; 250 µg/mL) was 55%.
